{"source": "patent EP4664463A1", "about": "“COMPUTER-IMPLEMENTED METHOD FOR OLFACTORY PROPERTY PREDICTION” (Givaudan SA, priority 2024, dated 2025)", "key": {"[1]": {"target": "T1, OR identified in the library screening (receptor named per line) (Homo sapiens, UniProt Q8NGJ0)", "T1 construct": "expressed in transfected cells; host or cells: HEK293T stably expressing human RTP1S(V227I) and RTP2(L220R) (general method)", "test": "Confirmatory dose-response of library hits, wild-type OR vs OR with C-terminus SEQ ID NO: 221 (Table 17)", "type": "cell-based", "method": "(§2) Selected ligand - OR pairs were then tested in a confirmatory test with a dose response analysis.\n(§3) Dose-response analysis with the cognate ligand was then performed for both the wild-type and the modified sequence."}, "OR5A2 [2]": {"target": "T2, OR5A2 (Homo sapiens, UniProt Q8NGI9)", "T2 construct": "expressed in transfected cells; host or cells: HEK293T cells with stably integrated human RTP1S (V227I) and RTP2 (L220R)", "T2 sequence (Q8NGI9 1-324)": "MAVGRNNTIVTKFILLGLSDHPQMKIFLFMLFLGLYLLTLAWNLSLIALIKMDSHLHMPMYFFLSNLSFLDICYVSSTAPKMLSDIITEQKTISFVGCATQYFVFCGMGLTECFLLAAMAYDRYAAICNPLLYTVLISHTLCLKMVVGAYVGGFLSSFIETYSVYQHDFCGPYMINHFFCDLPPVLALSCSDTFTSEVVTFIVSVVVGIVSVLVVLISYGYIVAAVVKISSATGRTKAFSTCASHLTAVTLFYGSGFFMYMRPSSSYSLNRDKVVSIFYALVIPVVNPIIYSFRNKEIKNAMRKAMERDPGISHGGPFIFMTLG", "test": "Luciferase dose-response, wild-type vs changed C-terminus (SEQ ID NO: 86)", "type": "cell-based", "conditions": "wild-type OR5A2", "text": "(§1) To create an expression plasmid, an OR coding sequence fused at the end of TM7 to the desired C-terminus sequence was synthesized by a DNA synthesis service provider (BioCat GmbH, Germany) and inserted into pcDNA3.1(+) (Invitrogen, MA, USA) downstream of the CMV promoter sequence (SEQ ID NO: 82) using BamHI and Notl restriction sites. All the synthetic OR nucleotide sequences described below in Examples 1-15 further contained at their N-terminus a nucleotide sequence encoding a signal peptide (mmLucy-FLAG-rho, SeQ ID NOs: 80, 81) and at the C-terminus the bgh terminator sequence (SEQ ID NO: 83). All the OR expression plasmids also contain a Kozak sequence (GCCACC) between the BamHI restriction site and the start codon of the signal peptide. These plasmids thus contain a constitutively expressed OR gene."}, "OR5A2 [3]": {"target": "T3, OR5A2 (Homo sapiens, UniProt Q8NGI9)", "T3 construct": "expressed in transfected cells; host or cells: HEK293T cells with stably integrated human RTP1S (V227I) and RTP2 (L220R)", "T3 sequence (Q8NGI9 with tags, fused parts or gaps)": "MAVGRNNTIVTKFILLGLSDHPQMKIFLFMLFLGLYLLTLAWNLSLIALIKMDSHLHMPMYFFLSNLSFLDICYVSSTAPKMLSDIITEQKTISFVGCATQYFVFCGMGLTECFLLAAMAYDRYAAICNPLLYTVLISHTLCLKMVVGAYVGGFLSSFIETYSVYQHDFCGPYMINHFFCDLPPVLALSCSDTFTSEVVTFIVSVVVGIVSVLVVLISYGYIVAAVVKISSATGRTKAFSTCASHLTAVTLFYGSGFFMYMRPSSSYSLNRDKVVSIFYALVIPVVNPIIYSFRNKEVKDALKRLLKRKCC", "test": "Luciferase dose-response, wild-type vs changed C-terminus (SEQ ID NO: 86)", "type": "cell-based", "conditions": "OR5A2 with SEQ ID NO: 86", "text": "as §1"}, "OR5A2 [4]": {"tested_on": "OR5A2", "test": "Dose-dependent luciferase induction by muscone of OR5A2 C-terminal variants", "type": "cell-based, human", "conditions": "modified OR5A2", "text": "as §1\nTable 11. Dose-dependent induction OR5A2 with two different variants of the C-terminal sequence motif (Shown is fold-induction of luciferase)"}, "[5]": {"tested_on": "library of all class II OR with modified C-terminal domain RNKEVKKAIKRLFKRKCCRRR (SEQ ID NO: 221)", "test": "Screening of the library of all class II OR with single odorants (luciferase)", "type": "cell-based, human", "conditions": "full class II OR library (n = 408); maximal non-cytotoxic concentration", "protocol": "All human class II OR and all key genetic variants of these OR were synthesized with a sequence coding for an identical modified C-terminal domain […] (SEQ ID NO: 221) in the vector pcDNA3.1(+) to generate a library of all class II OR with an improved C-terminal domain. Class II OR library members with modified C-terminal domains\nParallel transfection experiments were conducted with all these plasmids (n = 408) and cells expressing the different OR were stimulated with one given ligand at a time, tested at the maximal, clearly non-cytotoxic concentration. In total 26 different ligands were tested on the full library of class II receptors."}, "OR5AN1": {"target": "T4, OR5AN1 (Homo sapiens, UniProt Q8NGI8)", "T4 construct": "expressed in transfected cells; host or cells: HEK293T stably expressing human RTP1S(V227I) and RTP2(L220R)", "T4 sequence (Q8NGI8 with tags, fused parts or gaps limits assumed)": "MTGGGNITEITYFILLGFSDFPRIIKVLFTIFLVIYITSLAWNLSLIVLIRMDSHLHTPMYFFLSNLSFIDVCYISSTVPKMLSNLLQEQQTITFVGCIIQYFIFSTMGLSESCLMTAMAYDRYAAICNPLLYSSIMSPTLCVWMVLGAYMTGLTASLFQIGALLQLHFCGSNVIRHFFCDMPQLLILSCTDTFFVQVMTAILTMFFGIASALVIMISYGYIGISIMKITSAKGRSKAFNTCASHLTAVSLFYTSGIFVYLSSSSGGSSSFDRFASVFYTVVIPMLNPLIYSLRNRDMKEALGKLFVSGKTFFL", "test": "Chimeric OR5AN1 with C-terminal sequence of OR1N2 (luciferase)", "type": "cell-based", "text": "Similarly, the C-terminal sequence of OR5AN1 was replaced with the C-terminal sequence of the ambrettolide receptor OR1 N2."}, "OR52A5 [6]": {"target": "T5, OR52A5 (Homo sapiens, UniProt Q9H2C5)", "T5 construct": "expressed in transfected cells; host or cells: HEK293T cells stably expressing human RTP1S (V227I) and RTP2 (L220R)", "test": "cell-based", "type": "cell-based", "text": "as §1", "T5 sequence (Q9H2C5 whole entry)": "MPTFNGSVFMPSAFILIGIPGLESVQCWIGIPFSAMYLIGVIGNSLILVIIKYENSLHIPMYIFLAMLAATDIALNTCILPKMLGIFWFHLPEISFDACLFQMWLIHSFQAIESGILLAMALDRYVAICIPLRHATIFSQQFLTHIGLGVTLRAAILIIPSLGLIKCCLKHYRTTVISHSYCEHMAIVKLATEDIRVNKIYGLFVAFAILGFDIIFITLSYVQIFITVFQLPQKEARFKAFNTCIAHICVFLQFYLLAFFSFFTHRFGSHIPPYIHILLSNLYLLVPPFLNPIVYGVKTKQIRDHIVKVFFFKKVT"}, "OR52A5 [7]": {"target": "T6, OR52A5 (Homo sapiens, UniProt Q9H2C5)", "T6 construct": "expressed in transfected cells; host or cells: HEK293T cells stably expressing human RTP1S (V227I) and RTP2 (L220R)", "test": "cell-based", "type": "cell-based", "text": "as §1", "remark": "listed apart in the source", "T6 sequence (Q9H2C5 with tags, fused parts or gaps)": "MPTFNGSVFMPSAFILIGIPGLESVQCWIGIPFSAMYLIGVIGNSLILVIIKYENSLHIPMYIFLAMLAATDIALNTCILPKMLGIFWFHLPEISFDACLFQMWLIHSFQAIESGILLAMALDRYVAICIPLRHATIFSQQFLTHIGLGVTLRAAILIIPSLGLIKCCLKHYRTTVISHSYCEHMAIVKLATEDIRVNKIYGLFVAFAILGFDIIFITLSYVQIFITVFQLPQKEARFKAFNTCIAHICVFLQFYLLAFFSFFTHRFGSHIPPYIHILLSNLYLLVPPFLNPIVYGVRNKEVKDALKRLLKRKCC"}, "OR52A5 [8]": {"tested_on": "OR52A5", "test": "cell-based", "type": "cell-based, human", "text": "as §1"}, "[9]": {"target": "T7, OR identified in the library screening (receptor named per line) (Homo sapiens, UniProt Q8NGX5)", "T7 construct": "expressed in transfected cells; host or cells: HEK293T stably expressing human RTP1S(V227I) and RTP2(L220R) (general method)", "test": "Confirmatory dose-response of library hits, wild-type OR vs OR with C-terminus SEQ ID NO: 221 (Table 17)", "type": "cell-based", "conditions": "receptor OR10K1, wild-type sequence; read-out: Potency EC50 wild-type (converted)", "method": "as §2, §3"}, "OR9Q2 [10]": {"target": "T8, OR9Q2 (Homo sapiens, UniProt Q8NGE9)", "T8 construct": "expressed in transfected cells; host or cells: HEK293T cells stably expressing human RTP1S (V227I) and RTP2 (L220R)", "test": "Luciferase dose-response, wild-type vs changed C-terminus (SEQ ID NO: 86)", "type": "cell-based", "conditions": "changed C-term SEQ ID NO: 86; read-out: Potency EC50", "T8 sequence (Q8NGE9 with tags, fused parts or gaps)": "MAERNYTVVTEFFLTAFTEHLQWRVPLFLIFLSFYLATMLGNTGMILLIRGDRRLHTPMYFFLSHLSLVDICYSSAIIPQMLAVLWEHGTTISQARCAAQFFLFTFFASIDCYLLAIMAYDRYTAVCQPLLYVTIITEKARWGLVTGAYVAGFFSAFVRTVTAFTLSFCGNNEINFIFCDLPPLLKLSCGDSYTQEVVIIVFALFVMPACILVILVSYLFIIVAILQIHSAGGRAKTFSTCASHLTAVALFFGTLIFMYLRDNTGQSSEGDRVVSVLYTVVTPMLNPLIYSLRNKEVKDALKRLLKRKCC"}, "OR9Q2 [11]": {"target": "T9, OR9Q2 (Homo sapiens, UniProt Q8NGE9)", "T9 construct": "expressed in transfected cells; host or cells: HEK293T cells stably expressing human RTP1S (V227I) and RTP2 (L220R)", "test": "Luciferase dose-response, wild-type vs changed C-terminus (SEQ ID NO: 86)", "type": "cell-based", "conditions": "wild-type; read-out: Potency EC50", "T9 sequence (Q8NGE9 whole entry)": "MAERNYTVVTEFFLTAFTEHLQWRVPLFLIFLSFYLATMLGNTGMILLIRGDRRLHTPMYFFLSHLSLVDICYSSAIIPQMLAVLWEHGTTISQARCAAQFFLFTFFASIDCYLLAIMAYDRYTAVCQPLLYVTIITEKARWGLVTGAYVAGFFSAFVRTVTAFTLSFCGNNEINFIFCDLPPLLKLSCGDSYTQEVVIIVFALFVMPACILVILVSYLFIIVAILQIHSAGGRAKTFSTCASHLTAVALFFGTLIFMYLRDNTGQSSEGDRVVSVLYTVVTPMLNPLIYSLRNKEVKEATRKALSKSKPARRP"}, "[12]": {"tested_on": "library of all class I OR with C-terminal domain RNKQIRDALKRLLKRKCCRRR (SEQ ID NO: 741)", "test": "Screening of the library of all class I OR with carboxylic acid ligands (luciferase)", "type": "cell-based, human", "conditions": "full class I OR library (n = 77)", "protocol": "All human class I OR and all key genetic variants of these OR were synthesized with a sequence coding for the identical C-terminal domain […] (SEQ ID NO: 741) in the vector pcDNA3.1(+) to generate a library of all class I OR with an improved C-terminal domain. Class I OR library members\nParallel transfection experiments were conducted with all these plasmids (n = 77, SEQ ID NO: 760, OR51F1 was excluded due to poor plasmid yield) and cells expressing the different OR were stimulated with one given ligand at a time. In total 10 different carboxylic acids ligands were tested on the full library of class I receptors."}, "OR2T4 [13]": {"target": "T10, OR2T4 (Homo sapiens, UniProt Q8NH00)", "T10 construct": "expressed in transfected cells; host or cells: HEK293T cells stably expressing human RTP1S (V227I) and RTP2 (L220R)", "T10 sequence (Q8NH00 35-348)": "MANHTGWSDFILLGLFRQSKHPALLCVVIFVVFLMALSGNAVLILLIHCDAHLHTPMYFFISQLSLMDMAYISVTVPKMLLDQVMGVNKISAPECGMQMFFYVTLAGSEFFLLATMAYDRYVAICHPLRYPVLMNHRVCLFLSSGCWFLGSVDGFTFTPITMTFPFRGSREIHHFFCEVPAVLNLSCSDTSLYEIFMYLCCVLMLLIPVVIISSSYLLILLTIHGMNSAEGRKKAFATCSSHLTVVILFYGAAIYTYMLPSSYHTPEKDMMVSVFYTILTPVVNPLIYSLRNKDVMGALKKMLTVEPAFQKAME", "test": "cell-based", "type": "cell-based"}, "OR2T4 [14]": {"target": "T11, OR2T4 (Homo sapiens, UniProt Q8NH00, D328E/G331D/M330K)", "T11 construct": "expressed in transfected cells; host or cells: HEK293T cells stably expressing human RTP1S (V227I) and RTP2 (L220R)", "T11 sequence (Q8NH00 with tags, fused parts or gaps D328E/M330K/G331D)": "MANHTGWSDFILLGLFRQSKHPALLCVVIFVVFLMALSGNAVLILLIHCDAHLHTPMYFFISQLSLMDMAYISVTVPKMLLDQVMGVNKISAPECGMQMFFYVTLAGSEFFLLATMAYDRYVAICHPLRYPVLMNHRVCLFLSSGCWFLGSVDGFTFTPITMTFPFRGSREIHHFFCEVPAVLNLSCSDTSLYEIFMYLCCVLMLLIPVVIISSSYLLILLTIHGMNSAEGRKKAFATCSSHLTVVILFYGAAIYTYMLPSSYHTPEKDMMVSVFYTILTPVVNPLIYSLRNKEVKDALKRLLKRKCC", "test": "cell-based", "type": "cell-based"}, "OR2T4 [15]": {"tested_on": "OR2T4", "test": "cell-based", "type": "cell-based, human"}, "[16]": {"conditions": "changed C-term SEQ ID NO: 86, read-out: Potency EC50"}}, "note": "Like-named read-outs stand apart in the source and are kept apart here."}
{"smiles": "CC(=O)/C=C/C1=C(C)CCCC1(C)C", "note": "[β-lonone]", "values": [{"measurement": "EC50", "setting": "[1]", "value": 48.3, "unit": "µM"}]}
{"smiles": "C[C@@H]1CCCCCCCCCCCCC(=O)C1", "note": "[Muscone]", "values": [{"measurement": "activation of the wild-type receptor", "setting": "OR5A2 [2]", "value": "No activation"}, {"measurement": "concentration at which activation occurs", "setting": "OR5A2 [3]", "value": 1, "unit": "µM"}, {"measurement": "concentration at which induction starts", "setting": "OR5A2 [4]", "value": 0.03, "unit": "µM"}, {"measurement": "Activated OR and OR variants", "setting": "[5]", "value": "OR5AN1, OR5A2"}, {"measurement": "functional response", "setting": "OR5AN1", "value": "not showing any functional response"}]}
{"smiles": "CCCCC(CC)CCC(=O)O", "note": "(stereo not drawn) [4-ethyloctanoic acid]", "values": [{"measurement": "Detection threshold; concentration for 2-fold induction", "setting": "OR52A5 [6]", "value": ">1000", "unit": "µM"}, {"measurement": "Detection threshold; concentration for 2-fold induction", "setting": "OR52A5 [7]", "value": 101, "unit": "µM"}, {"measurement": "EC50", "setting": "OR52A5 [7]; [16]", "value": 300, "unit": "µM"}, {"measurement": "Comments on efficacy", "setting": "OR52A5 [8]", "value": "2.5-fold lower maximal induction for wild-type"}, {"measurement": "Fold-improvement threshold", "setting": "OR52A5 [8]", "value": ">10"}]}
{"smiles": "CC(C)CCc1ccc2c(c1)OCC(=O)CO2", "note": "[7-(3-Methylbutyl)-benzo[b][1,4]dioxepin-3-one]", "values": [{"measurement": "EC50", "setting": "[9]", "value": 6.8, "unit": "µM"}]}
{"smiles": "O=C(OCc1ccccc1)c1ccccc1O", "note": "[Benzyl salicylate]", "values": [{"measurement": "Activated OR and OR variants", "setting": "[5]", "value": "OR2AG2(Y28C)"}]}
{"smiles": "Cc1ccc(O)cc1", "note": "[Para-Cresol]", "values": [{"measurement": "EC50", "setting": "OR9Q2 [10]", "value": 2.8, "unit": "µM"}, {"measurement": "EC50", "setting": "OR9Q2 [11]", "value": 30.7, "unit": "µM"}]}
{"smiles": "CC(C)CC(=O)O", "note": "[3-Methylbutanoic acid]", "values": [{"measurement": "Activated OR and OR variants", "setting": "[12]", "value": "No activation observed"}]}
{"smiles": "SC1CCCC1", "note": "[Cyclopentanethiol]", "values": [{"measurement": "Detection threshold; concentration for 2-fold induction", "setting": "OR2T4 [13]", "value": "n.i. (>> 316) µM"}, {"measurement": "EC50", "setting": "OR2T4 [13]; wild-type, read-out: Potency EC50", "value": "> 316", "unit": "µM"}, {"measurement": "Detection threshold; concentration for 2-fold induction", "setting": "OR2T4 [14]", "value": 3.89, "unit": "µM"}, {"measurement": "ligands identified in screening of sulfur odorants", "setting": "OR2T4 [14]; OR2T4 with SEQ ID NO: 86", "value": "good ligands"}, {"measurement": "EC50", "setting": "OR2T4 [14]; [16]", "value": 14.6, "unit": "µM"}, {"measurement": "Comments on efficacy", "setting": "OR2T4 [15]", "value": "No induction wild-type"}, {"measurement": "Fold-improvement potency", "setting": "OR2T4 [15]", "value": ">>2"}, {"measurement": "Fold-improvement threshold", "setting": "OR2T4 [15]", "value": ">>100"}]}
